Assay results: ChEMBL document CHEMBL3885861, “Open TG-GATES”

Species on record: Rattus norvegicus
Experiment: Open TG-GATES - Regimen: Daily Repeat
Type: toxicity, organism-based, Sprague-Dawley
Design: regimen Daily Repeat, gender Male, age 6 weeks
Conditions: in vivo, po, route gavage; for APTT / Bas / Eos / Fbg / Ht / Lym / MCHC / MCV / Mono / PT / Plat / RBC / Ret / WBC: tissue Blood; for KIDNEY_L / KIDNEY_R / KIDNEY_TOTAL: tissue Kidney; for LIVER: tissue Liver; for ALP / ALT / AST / BUN / CRE / Ca / Cl / DBIL / IP / LDH / Na / PL / RALB / TBIL / TC / TG / TP / gamma-GTP: tissue Plasma
[1] = 0 mg/kg, 72 h, dose level Control, time 3 day
[2] = 0 mg/kg, […], dose level Control, time 7 day
[3] = 0 mg/kg, […], dose level Control, time 14 day
[4] = 0 mg/kg, […], dose level Control, time 28 day
[5] = 40 mg/kg, 72 h, dose level Low, time 3 day
[6] = 40 mg/kg, […], dose level Low, time 7 day
[7] = 40 mg/kg, […], dose level Low, time 14 day
[8] = 40 mg/kg, […], dose level Low, time 28 day

CC(C)N(CCC(C(N)=O)(c1ccccc1)c1ccccn1)C(C)C (stereo not given) [DISOPYRAMIDE]
TERMINAL_BW [1]: 230.2 g | APTT [1]: 22 s | Bas [1]: 0% | Eos [1]: 1.2% | Fbg [1]: 325.2 mg/dL | Ht [1]: 39.9% | Lym [1]: 76.8% | MCHC [1]: 32% | MCV [1]: 64.5 fL | Mono [1]: 2.8% | PT [1]: 15.8 s | Plat [1]: 130.4 x10_4/uL | RBC [1]: 617.8 x10_4/ul | Ret [1]: 7.1% | WBC [1]: 99.7 x10_2/uL | KIDNEY_L [1]: 1 g | KIDNEY_R [1]: 1 g | KIDNEY_TOTAL [1]: 2 g | LIVER [1]: 11 g | ALP [1]: 1742 IU/L | ALT [1]: 49.6 IU/L | AST [1]: 80.8 IU/L | BUN [1]: 17.6 mg/dL | CRE [1]: 0.2 mg/dL | Ca [1]: 10.6 mg/dL | Cl [1]: 107.2 meq/L | DBIL [1]: 0 mg/dL | IP [1]: 7.5 mg/dL | LDH [1]: 201.8 IU/L | Na [1]: 143 meq/L | PL [1]: 140.4 mg/dL | RALB [1]: 2.9 g/dL | TBIL [1]: 0 mg/dL | TC [1]: 71.6 mg/dL | TG [1]: 88 mg/dL | TP [1]: 5.5 g/dL | gamma-GTP [1]: 2 IU/L | TERMINAL_BW [2]: 265.2 g | TERMINAL_BW [3]: 303.7 g | TERMINAL_BW [4]: 406.5 g | APTT [2]: 21.6 s | Bas [2]: 0% | Eos [2]: 0.8% | Fbg [2]: 324 mg/dL | Ht [2]: 39.9% | Lym [2]: 78% | MCHC [2]: 32.1% | MCV [2]: 62.4 fL | Mono [2]: 2% | PT [2]: 16.2 s | Plat [2]: 116.2 x10_4/uL | RBC [2]: 639.4 x10_4/ul | Ret [2]: 6.7% | WBC [2]: 90.3 x10_2/uL | APTT [3]: 25.1 s | Bas [3]: 0% | Eos [3]: 1% | Fbg [3]: 319.4 mg/dL | Ht [3]: 41.9% | Lym [3]: 80.8% | MCHC [3]: 33% | MCV [3]: 58.7 fL | Mono [3]: 2% | PT [3]: 15.7 s | Plat [3]: 113.2 x10_4/uL | RBC [3]: 715 x10_4/ul | Ret [3]: 4.4% | WBC [3]: 124.4 x10_2/uL | APTT [4]: 24.9 s | Bas [4]: 0% | Eos [4]: 1% | Fbg [4]: 317 mg/dL | Ht [4]: 42.9% | Lym [4]: 80% | MCHC [4]: 33.5% | MCV [4]: 56.9 fL | Mono [4]: 2.2% | PT [4]: 15.7 s | Plat [4]: 100.4 x10_4/uL | RBC [4]: 755.2 x10_4/ul | Ret [4]: 3.4% | WBC [4]: 136.1 x10_2/uL | KIDNEY_L [2]: 1.1 g | KIDNEY_R [2]: 1.1 g | KIDNEY_TOTAL [2]: 2.3 g | KIDNEY_L [3]: 1.2 g | KIDNEY_R [3]: 1.3 g | KIDNEY_TOTAL [3]: 2.5 g | KIDNEY_L [4]: 1.6 g | KIDNEY_R [4]: 1.6 g | KIDNEY_TOTAL [4]: 3.1 g | LIVER [2]: 13.2 g | LIVER [3]: 13.6 g | LIVER [4]: 17.8 g | ALP [2]: 1665 IU/L | ALT [2]: 44 IU/L | AST [2]: 70.8 IU/L | BUN [2]: 19 mg/dL | CRE [2]: 0.2 mg/dL | Ca [2]: 10.6 mg/dL | Cl [2]: 106.6 meq/L | DBIL [2]: 0 mg/dL | IP [2]: 7.8 mg/dL | LDH [2]: 199.2 IU/L | Na [2]: 143.2 meq/L | PL [2]: 158.6 mg/dL | RALB [2]: 3 g/dL | TBIL [2]: 0 mg/dL | TC [2]: 81.4 mg/dL | TG [2]: 133.6 mg/dL | TP [2]: 5.6 g/dL | gamma-GTP [2]: 2 IU/L | ALT [3]: 41.8 IU/L | AST [3]: 68 IU/L | BUN [3]: 18.6 mg/dL | CRE [3]: 0.1 mg/dL | Ca [3]: 10.3 mg/dL | Cl [3]: 104.8 meq/L | DBIL [3]: 0 mg/dL | IP [3]: 7 mg/dL | LDH [3]: 142.2 IU/L | Na [3]: 142.2 meq/L | PL [3]: 146.4 mg/dL | RALB [3]: 3 g/dL | TBIL [3]: 0.004 mg/dL | TC [3]: 71.2 mg/dL | TG [3]: 138.2 mg/dL | TP [3]: 5.7 g/dL | gamma-GTP [3]: 2.2 IU/L | ALP [4]: 1292.8 IU/L | ALT [4]: 36.8 IU/L | AST [4]: 62.8 IU/L | BUN [4]: 17.4 mg/dL | CRE [4]: 0.2 mg/dL | Ca [4]: 10.4 mg/dL | Cl [4]: 105 meq/L | DBIL [4]: 0 mg/dL | IP [4]: 6.8 mg/dL | LDH [4]: 199.4 IU/L | Na [4]: 140.6 meq/L | PL [4]: 145.4 mg/dL | RALB [4]: 3.1 g/dL | TBIL [4]: 0.006 mg/dL | TC [4]: 70.6 mg/dL | TG [4]: 181.6 mg/dL | TP [4]: 6.1 g/dL | gamma-GTP [4]: 2.2 IU/L | TERMINAL_BW [5]: 231.5 g | APTT [5]: 20.9 s | Bas [5]: 0% | Eos [5]: 1.2% | Fbg [5]: 313.2 mg/dL | Ht [5]: 39.2% | Lym [5]: 81.8% | MCHC [5]: 32.1% | MCV [5]: 63.9 fL | Mono [5]: 2.2% | PT [5]: 16 s | Plat [5]: 113.5 x10_4/uL | RBC [5]: 614.4 x10_4/ul | Ret [5]: 6.2% | WBC [5]: 87.7 x10_2/uL | KIDNEY_L [5]: 1.1 g | KIDNEY_R [5]: 1.1 g | KIDNEY_TOTAL [5]: 2.1 g | LIVER [5]: 10.8 g | ALP [5]: 1494 IU/L | ALT [5]: 45.4 IU/L | AST [5]: 75.4 IU/L | BUN [5]: 15.4 mg/dL | CRE [5]: 0.2 mg/dL | Ca [5]: 10.8 mg/dL | Cl [5]: 107.8 meq/L | DBIL [5]: 0 mg/dL | IP [5]: 7.6 mg/dL | LDH [5]: 188.2 IU/L | PL [5]: 146.8 mg/dL | RALB [5]: 3 g/dL | TBIL [5]: 0 mg/dL | TC [5]: 73.4 mg/dL | TG [5]: 122.4 mg/dL | TP [5]: 5.4 g/dL | gamma-GTP [5]: 1.8 IU/L | TERMINAL_BW [6]: 254.3 g | TERMINAL_BW [7]: 308.2 g | TERMINAL_BW [8]: 375 g | APTT [6]: 20.5 s | Bas [6]: 0% | Eos [6]: 0.8% | Fbg [6]: 323.8 mg/dL | Ht [6]: 40% | Lym [6]: 83% | MCHC [6]: 32.7% | MCV [6]: 61.2 fL | Mono [6]: 1.8% | PT [6]: 15.9 s | Plat [6]: 122.2 x10_4/uL | RBC [6]: 654 x10_4/ul | Ret [6]: 6.2% | WBC [6]: 120.7 x10_2/uL | APTT [7]: 23.9 s | Bas [7]: 0% | Eos [7]: 1% | Fbg [7]: 310.6 mg/dL | Ht [7]: 41.1% | Lym [7]: 80.6% | MCHC [7]: 32.8% | MCV [7]: 59.7 fL | Mono [7]: 2.2% | PT [7]: 15.3 s | Plat [7]: 109 x10_4/uL | RBC [7]: 688.2 x10_4/ul | Ret [7]: 4.9% | WBC [7]: 113.4 x10_2/uL | APTT [8]: 25.5 s | Bas [8]: 0% | Eos [8]: 1.2% | Fbg [8]: 320.2 mg/dL | Ht [8]: 43.3% | Lym [8]: 81% | MCHC [8]: 33.8% | MCV [8]: 55.7 fL | Mono [8]: 2.2% | PT [8]: 15.4 s | Plat [8]: 110.5 x10_4/uL | RBC [8]: 776.4 x10_4/ul | Ret [8]: 2.6% | WBC [8]: 121.1 x10_2/uL | KIDNEY_L [6]: 1 g | KIDNEY_R [6]: 1.1 g | KIDNEY_TOTAL [6]: 2.1 g | KIDNEY_L [7]: 1.3 g | KIDNEY_R [7]: 1.3 g | KIDNEY_TOTAL [7]: 2.6 g | KIDNEY_L [8]: 1.4 g | KIDNEY_R [8]: 1.4 g | KIDNEY_TOTAL [8]: 2.7 g | LIVER [6]: 11.6 g | LIVER [7]: 14.7 g | LIVER [8]: 16 g | ALP [6]: 1528.8 IU/L | ALT [6]: 48.2 IU/L | AST [6]: 72.2 IU/L | BUN [6]: 16.4 mg/dL | CRE [6]: 0.1 mg/dL | Ca [6]: 10.4 mg/dL | Cl [6]: 106.8 meq/L | DBIL [6]: 0.002 mg/dL | IP [6]: 7.7 mg/dL | LDH [6]: 149.8 IU/L | Na [6]: 143.2 meq/L | PL [6]: 141.6 mg/dL | RALB [6]: 2.9 g/dL | TBIL [6]: 0 mg/dL | TC [6]: 73.4 mg/dL | TG [6]: 115.6 mg/dL | TP [6]: 5.4 g/dL | gamma-GTP [6]: 1.8 IU/L | ALP [7]: 1255.8 IU/L | ALT [7]: 47.8 IU/L | AST [7]: 75 IU/L | BUN [7]: 16.8 mg/dL | CRE [7]: 0.2 mg/dL | Ca [7]: 10.4 mg/dL | Cl [7]: 104.8 meq/L | DBIL [7]: 0 mg/dL | IP [7]: 7.6 mg/dL | LDH [7]: 225 IU/L | Na [7]: 141.6 meq/L | PL [7]: 147 mg/dL | RALB [7]: 3.1 g/dL | TBIL [7]: 0.01 mg/dL | TC [7]: 73.6 mg/dL | TG [7]: 131 mg/dL | TP [7]: 5.7 g/dL | gamma-GTP [7]: 2.2 IU/L | ALP [8]: 1094 IU/L | ALT [8]: 40 IU/L | AST [8]: 64.6 IU/L | BUN [8]: 17.4 mg/dL | CRE [8]: 0.2 mg/dL | Ca [8]: 10.5 mg/dL | Cl [8]: 106.4 meq/L | DBIL [8]: 0 mg/dL | IP [8]: 6.3 mg/dL | LDH [8]: 158.6 IU/L | Na [8]: 140.6 meq/L | PL [8]: 158 mg/dL | RALB [8]: 3.1 g/dL | TBIL [8]: 0.004 mg/dL | TC [8]: 70 mg/dL | TG [8]: 205 mg/dL | TP [8]: 6.1 g/dL | gamma-GTP [8]: 2.2 IU/L | TERMINAL_BW (120 mg/kg, 72 h, dose level Middle, time 3 day): 227.1 g
